DBAASP
Values after ≈ are worked out from the molar mass of the structure shown. Values joined by “and” are separate entries in the source; they are usually repeats but may differ in a detail not shown here. Equal values may be shown once.

Columns and labels:
Test in all cases: ≥ marks a high value that may be exact or a test limit, other limits are often not marked, values filed in µg/mL are converted to µM
[1] = test system: Staphylococcus aureus ATCC 29213
[2] = test system: Clostridium perfringens ATCC 12915
[3] = test system: Pseudomonas aeruginosa ATCC 27853
[4] = test system: Bacillus cereus ATCC 9193
Saccharomyces cerevisiae = test system: Saccharomyces cerevisiae
[5] = test system: Campylobacter jejuni ATCC 33291
[6] = test system: Streptococcus pyogenes ATCC 19615
[7] = test system: Salmonella enterica subsp. enterica serovar Typhimurium ATCC 14028
Candida albicans = test system: Candida albicans
[8] = test system: Lactiplantibacillus plantarum CGMCC 1.11
[9] = test system: Staphylococcus aureus CGMCC 1.2386
[10] = test system: Pseudomonas aeruginosa CGMCC 1.647
[11] = test system: Staphylococcus aureus ATCC 6538P
[12] = test system: Enterococcus faecalis CGMCC 1.125
[13] = test system: Staphylococcus aureus CGMCC 1.879
[14] = test system: Bacillus subtilis CGMCC 1.1627
[15] = test system: Listeria monocytogenes ATCC 7648
[16] = test system: Lactiplantibacillus plantarum CGMCC 1.556
[17] = test system: Shigella dysenteriae ATCC 9753
[18] = test system: Shigella flexneri CGMCC 1.1868
[19] = test system: Lactiplantibacillus plantarum CGMCC 1.511
[20] = test system: Staphylococcus aureus CGMCC 1.128
[21] = test system: Escherichia coli CGMCC 1.1580
[22] = test system: Lactiplantibacillus plantarum CGMCC 1.124
Escherichia coli JM109 = test system: Escherichia coli JM109
[23] = test system: Salmonella sp. CGMCC 1.1552
[24] = test system: Lactococcus lactis ATCC 15577
[25] = test system: Lactiplantibacillus plantarum CGMCC 1.551
[26] = test system: Micrococcus luteus CGMCC 1.193
[27] = test system: Pseudomonas putida CGMCC 1.645
[28] = test system: Pseudomonas aeruginosa KCTC 1637
[29] = test system: Escherichia coli KCTC 1682
[30] = test system: Fusarium oxysporum KCTC 6084
[31] = test system: Candida albicans KCTC 7121
[32] = test system: Bacillus megaterium KCTC 1096
[33] = test system: Aspergillus flavus KCTC 7375
[34] = test system: Bacillus subtilis KCTC 1918
[35] = test system: Staphylococcus aureus KCTC 1621
[36] = test system: Trichosporon beigelii KCTC 7251
Proteus vulgaris = test system: Proteus vulgaris
Fusarium oxysporum = test system: Fusarium oxysporum
Carnobacterium mobile = test system: Carnobacterium mobile

In the case of `CC[C@H](C)[C@@H]1NC(=O)[C@H](CC(=O)O)NC(=O)[C@H](C(C)C)NC(=O)[C@H](CO)NC(=O)[C@@H]2CCCN2C(=O)[C@H](C)NC(=O)[C@H](CCCN=C(N)N)NC(=O)[C@@H]2CSSC[C@@H](C(=O)N[C@@H](CCCCN)C(=O)N[C@@H](Cc3c[nH]c4ccccc34)C(=O)N[C@@H](C)C(=O)N3CCC[C@H]3C(=O)N[C@@H](CO)C(=O)N[C@@H](CO)C(=O)O)NC(=O)[C@@H]3CSSC[C@H](NC(=O)[C@H](C)NC(=O)[C@H](CC(C)C)NC(=O)[C@@H](NC(=O)[C@@H](N)CC(=O)O)[C@@H](C)O)C(=O)N[C@@H](CCCN=C(N)N)C(=O)N[C@@H](CCC(N)=O)C(=O)N[C@@H](CO)C(=O)N[C@@H](Cc4cnc[nH]4)C(=O)NCC(=O)N[C@@H](CO)C(=O)N[C@@H](CSSC[C@H](NC(=O)[C@H]([C@@H](C)O)NC(=O)CNC1=O)C(=O)N[C@@H](CCCN=C(N)N)C(=O)NCC(=O)NCC(=O)N[C@@H](CCCCN)C(=O)N[C@@H](CC(C)C)C(=O)N[C@@H](CCCCN)C(=O)N3)C(=O)N[C@@H](CO)C(=O)N[C@@H](Cc1ccccc1)C(=O)N[C@@H](C(C)C)C(=O)N[C@@H](C)C(=O)N2` [DTLACRQSHGSCSFVACRAPSVDIGTCRGGKLKCCKWAPSS], the MIC [1] is reported as > 29.9 µM and 59.7 µM, the MIC [2] is reported as 1.87 µM (≈ 7.99 µg/mL) and the MIC [3] is reported as over 29.9 µM. It also gave an MIC [4] of 29.9 µM (≈ 128 µg/mL), an MIC (Saccharomyces cerevisiae) of 1.87 µM (≈ 7.99 µg/mL) and an MIC [5] of 14.9 µM (≈ 63.9 µg/mL). For the same compound, the MIC [6] was 14.9 µM (≈ 63.9 µg/mL), the MIC [7] was > 29.9 µM and 59.7 µM and the MIC (Candida albicans) was 1.87 µM (≈ 7.99 µg/mL).
Compound `CC[C@H](C)[C@H](NC(=O)[C@H](CC(C)C)NC(=O)[C@H](Cc1ccccc1)NC(=O)[C@H](CCC(N)=O)NC(=O)[C@H](CCC(N)=O)NC(=O)[C@H](CCCCN)NC(=O)[C@@H](NC(=O)[C@@H](N)CCCCN)[C@@H](C)O)C(=O)N[C@@H](CCCCN)C(=O)N[C@@H](C)C(=O)N[C@@H](CCC(N)=O)C(=O)N[C@H](C(=O)N[C@@H](CCC(N)=O)C(=O)N[C@@H](CC(C)C)C(=O)N[C@@H](Cc1ccccc1)C(=O)N[C@@H](CCCCN)C(=O)N[C@H](C(=O)N[C@@H](Cc1ccccc1)C(=O)NCC(=O)N[C@@H](Cc1ccc(O)cc1)C(=O)N[C@H](C(=O)N[C@@H](CC(C)C)C(=O)O)[C@@H](C)O)C(C)C)[C@@H](C)O` [KTKQQFLIKAQTQLFKVFGYTL] has an MIC [8] of 0.885 µM (≈ 2.33 µg/mL), an MIC [9] of 0.21 µM (≈ 0.553 µg/mL) and an MIC [10] of 0.144 µM (≈ 0.379 µg/mL). For the same compound, the MIC [11] was 0.178 µM (≈ 0.468 µg/mL), the MIC [12] was 0.146 µM (≈ 0.384 µg/mL) and the MIC [13] was 0.132 µM (≈ 0.347 µg/mL). The MIC [14] was 0.121 µM (≈ 0.318 µg/mL), the MIC [15] was 0.112 µM (≈ 0.295 µg/mL) and the MIC [16] was 0.682 µM (≈ 1.79 µg/mL). The MIC [17] was 0.185 µM (≈ 0.487 µg/mL), the MIC [18] was 0.135 µM (≈ 0.355 µg/mL) and the MIC [19] was 1.35 µM (≈ 3.56 µg/mL). For the same compound, the MIC [20] was 0.218 µM (≈ 0.574 µg/mL), the MIC [21] was 0.235 µM (≈ 0.618 µg/mL) and the MIC [22] was 0.242 µM (≈ 0.637 µg/mL). It also gave an MIC (Escherichia coli JM109) of 0.135 µM (≈ 0.355 µg/mL), an MIC [23] of 0.136 µM (≈ 0.358 µg/mL) and an MIC [24] of 1.23 µM (≈ 3.22 µg/mL). For the same compound, the MIC [25] was 0.722 µM (≈ 1.9 µg/mL), the MIC [26] was 0.153 µM (≈ 0.403 µg/mL) and the MIC [27] was 0.075 µM (≈ 0.197 µg/mL).
With `CC[C@H](C)[C@H](NC(=O)[C@H](CCCCN)NC(=O)[C@H](CCCCN)NC(=O)[C@H](Cc1ccccc1)NC(=O)[C@H](CC(C)C)NC(=O)[C@H](CCCCN)NC(=O)[C@H](Cc1c[nH]c2ccccc12)NC(=O)[C@@H](N)CCCCN)C(=O)N1CCC[C@H]1C(=O)N[C@@H](CCCCN)C(=O)N[C@@H](Cc1ccccc1)C(=O)N[C@@H](CC(C)C)C(=O)N[C@@H](Cc1cnc[nH]1)C(=O)N[C@@H](CC(C)C)C(N)=O` [KWKLFKKIPKFLHL] the MIC [28] was 6.25 µM (≈ 11.4 µg/mL), the MIC [29] was 6.25 µM (≈ 11.4 µg/mL) and the MIC [30] was at least 100 µM. The MIC [31] was at least 100 µM, the MIC [32] was 3.12 µM (≈ 5.7 µg/mL) and the MIC [33] was at least 100 µM. For the same compound, the MIC [34] was 1.56 µM (≈ 2.85 µg/mL), the MIC [35] was 6.25 µM (≈ 11.4 µg/mL) and the MIC [36] was at least 100 µM. For the same compound, the MIC (Proteus vulgaris) was 3.12 µM (≈ 5.7 µg/mL).
`CSCC[C@H](N)C(=O)N[C@@H](C)C(=O)N[C@@H](CO)C(=O)N[C@@H](CCCN=C(N)N)C(=O)N[C@@H](C)C(=O)N[C@@H](C)C(=O)N[C@@H](CCCN=C(N)N)C(=O)N[C@@H](CC(C)C)C(=O)N[C@@H](C)C(=O)N[C@@H](C)C(=O)N[C@@H](CCCN=C(N)N)C(=O)N[C@@H](CC(C)C)C(=O)N[C@@H](C)C(=O)N[C@@H](CCCN=C(N)N)C(=O)N[C@@H](CC(C)C)C(=O)N[C@@H](C)C(=O)N[C@@H](CC(C)C)C(=O)N[C@@H](CCCN=C(N)N)C(=O)N[C@@H](C)C(=O)N[C@@H](CC(C)C)C(=O)O` [MASRAARLAARLARLALRAL] was tested, and the MIC (Fusarium oxysporum) was 0.1 µM (≈ 0.215 µg/mL) and the MIC (Carnobacterium mobile) was 0.0025 µM (≈ 0.00538 µg/mL).
